In ChEMBL document CHEMBL1201862, “PubChem BioAssay data set” (2004):
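Tested at 5 concentrations; 48 h exposure; 96-well plates; endpoints linearly interpolated, else capped at highest concentration. GI50 marks 50% less growth.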 Calls of active or inactive are those of the source. Cut-off read from the data, not from the text of the source: active = GI50 up to about 1.1 µM and inactive = higher.

Experiments:
Test in all cases: NCI-60 cell line screen, 48 h
OVCAR-5 = test system: OVCAR-5
NCI-H522 = test system: NCI-H522
MDA-MB-435 = test system: MDA-MB-435
OVCAR-3 = test system: OVCAR-3
HCC 2998 = test system: HCC 2998
T47D = test system: T47D
TK-10 = test system: TK-10
NCI/ADR-RES = test system: NCI/ADR-RES
SF-295 = test system: SF-295
A549 = test system: A549
UO-31 = test system: UO-31
SNB-19 = test system: SNB-19
SK-MEL-5 = test system: SK-MEL-5
UACC-62 = test system: UACC-62
UACC-257 = test system: UACC-257
PC-3 = test system: PC-3
CCRF-CEM = test system: CCRF-CEM
SN12C = test system: SN12C
RXF 393 = test system: RXF 393
HT-29 = test system: HT-29
SK-OV-3 = test system: SK-OV-3
NCI-H226 = test system: NCI-H226
BT-549 = test system: BT-549
MDA-MB-231 = test system: MDA-MB-231
SR = test system: SR
DU-145 = test system: DU-145
NCI-H23 = test system: NCI-H23
COLO 205 = test system: COLO 205
HCT-15 = test system: HCT-15
K562 = test system: K562
Hs-578T = test system: Hs-578T
OVCAR-8 = test system: OVCAR-8
SF-539 = test system: SF-539
SNB-75 = test system: SNB-75
LOX IMVI = test system: LOX IMVI
Malme-3M = test system: Malme-3M
IGROV-1 = test system: IGROV-1
SK-MEL-2 = test system: SK-MEL-2
A498 = test system: A498
CAKI-1 = test system: CAKI-1
SW-620 = test system: SW-620
HOP-92 = test system: HOP-92
HCT-116 = test system: HCT-116
EKVX = test system: EKVX
M14 = test system: M14
MCF7 = test system: MCF7
KM12 = test system: KM12
RPMI-8226 = test system: RPMI-8226
786-0 = test system: 786-0
HL-60 = test system: HL-60
ACHN = test system: ACHN
U-251 = test system: U-251
SK-MEL-28 = test system: SK-MEL-28
MOLT-4 = test system: MOLT-4
SF-268 = test system: SF-268
OVCAR-4 = test system: OVCAR-4
MDA-N = test system: MDA-N
HOP-62 = test system: HOP-62

CC(C)=CCC/C(=C\CC/C(=C\CCc1ccoc1)C(=O)O)C(=O)O
GI50 (OVCAR-5): > 100 µM (inactive)
GI50 (NCI-H522): > 100 µM (inactive)
GI50 (MDA-MB-435): > 100 µM (inactive)
GI50 (OVCAR-3): > 100 µM (inactive)
GI50 (HCC 2998): > 100 µM (inactive)
GI50 (T47D): > 100 µM (inactive)
GI50 (TK-10): > 100 µM (inactive)
GI50 (NCI/ADR-RES): > 100 µM (inactive)
GI50 (SF-295): > 100 µM (inactive)
GI50 (A549): > 100 µM (inactive)
GI50 (UO-31): > 100 µM (inactive)
GI50 (SNB-19): > 100 µM (inactive)
GI50 (SK-MEL-5): > 100 µM (inactive)
GI50 (UACC-62): > 100 µM (inactive)
GI50 (UACC-257): > 100 µM (inactive)
GI50 (PC-3): > 100 µM (inactive)
GI50 (CCRF-CEM): > 100 µM (inactive)
GI50 (SN12C): > 100 µM (inactive)
GI50 (RXF 393): > 100 µM (inactive)
GI50 (HT-29): > 100 µM (inactive)
GI50 (SK-OV-3): > 100 µM (inactive)
GI50 (NCI-H226): > 100 µM (inactive)
GI50 (BT-549): > 100 µM (inactive)
GI50 (MDA-MB-231): > 100 µM (inactive)
GI50 (SR): > 100 µM (inactive)
GI50 (DU-145): > 100 µM (inactive)
GI50 (NCI-H23): > 100 µM (inactive)
GI50 (COLO 205): > 100 µM (inactive)
GI50 (HCT-15): > 100 µM
GI50 (K562): > 100 µM (inactive)
GI50 (Hs-578T): > 100 µM (inactive)
GI50 (OVCAR-8): > 100 µM (inactive)
GI50 (SF-539): > 100 µM (inactive)
GI50 (SNB-75): > 100 µM (inactive)
GI50 (LOX IMVI): > 100 µM (inactive)
GI50 (Malme-3M): > 100 µM (inactive)
GI50 (IGROV-1): > 100 µM (inactive)
GI50 (SK-MEL-2): > 100 µM (inactive)
GI50 (A498): > 100 µM (inactive)
GI50 (CAKI-1): > 100 µM (inactive)
GI50 (SW-620): > 100 µM (inactive)
GI50 (HOP-92): > 100 µM (inactive)
GI50 (HCT-116): > 100 µM (inactive)
GI50 (EKVX): > 100 µM (inactive)
GI50 (M14): > 100 µM (inactive)
GI50 (MCF7): > 100 µM (inactive)
GI50 (KM12): > 100 µM (inactive)
GI50 (RPMI-8226): > 100 µM (inactive)
GI50 (786-0): > 100 µM (inactive)
GI50 (HL-60): 11.7 µM (inactive)
GI50 (ACHN): > 100 µM (inactive)
GI50 (U-251): > 100 µM (inactive)
GI50 (SK-MEL-28): > 100 µM (inactive)
GI50 (MOLT-4): > 100 µM (inactive)
GI50 (SF-268): 92.3 µM (inactive)
GI50 (OVCAR-4): > 100 µM (inactive)
GI50 (MDA-N): > 100 µM (inactive)
GI50 (HOP-62): > 100 µM (inactive)
